From patent US12122761B2, “2-azaspiro[3.4]octane derivatives as M4 agonists” (NOVARTIS AG, priority 2019, dated 2024)

What was measured:
Assay type in all cases: cell-based
[1] = target: T1, human cloned CHRM2 receptor (M2_CHO cells) (Homo sapiens, UniProt P08172); test: CHRM2 Ca++ Flux Assay (agonist mode, FDSS 7000EX); settings: for Emax: Percent Activity measured to EC100 of Carbachol, read-out: M2 FDSS PA
T1 construct: expressed in transfected cells; host or cells: CHO-K1
T1 sequence (P08172 1-466): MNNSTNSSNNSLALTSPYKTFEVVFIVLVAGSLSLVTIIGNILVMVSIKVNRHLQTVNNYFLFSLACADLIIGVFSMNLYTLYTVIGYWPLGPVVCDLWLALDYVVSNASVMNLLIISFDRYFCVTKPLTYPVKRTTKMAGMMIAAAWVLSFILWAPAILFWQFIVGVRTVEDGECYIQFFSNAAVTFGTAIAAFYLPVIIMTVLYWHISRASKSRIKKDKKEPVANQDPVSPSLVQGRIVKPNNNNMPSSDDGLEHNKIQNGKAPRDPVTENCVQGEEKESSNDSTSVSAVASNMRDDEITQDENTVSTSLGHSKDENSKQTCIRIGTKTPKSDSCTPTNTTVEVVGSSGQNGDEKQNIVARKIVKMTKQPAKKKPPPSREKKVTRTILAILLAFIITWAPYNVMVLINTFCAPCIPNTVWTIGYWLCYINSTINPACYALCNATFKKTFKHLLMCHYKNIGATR
In short: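 Agonist-mode Ca++ flux in CHO-K1 cells stably expressing human CHRM2, dye-loaded, then held 60 min at room temperature in buffer with 20 μM ATP before compound addition; traces read over 3 minutes. Four-parameter fit of triplicate wells; percent activity relative to Carbachol EC100.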

[2] = target: T2, human cloned CHRM3 receptor (M3_CHO cells) (Homo sapiens, UniProt P20309); test: CHRM3 Ca++ Flux Assay (agonist mode, FDSS 7000EX); settings: for Emax: Percent Activity measured to EC100 of Carbachol, read-out: M3 FDSS PA; for EC50: agonist mode, geometric mean if tested more than once, read-out: M3 FDSS EC50
T2 construct: expressed in transfected cells; host or cells: CHO-K1
T2 sequence (P20309 whole entry): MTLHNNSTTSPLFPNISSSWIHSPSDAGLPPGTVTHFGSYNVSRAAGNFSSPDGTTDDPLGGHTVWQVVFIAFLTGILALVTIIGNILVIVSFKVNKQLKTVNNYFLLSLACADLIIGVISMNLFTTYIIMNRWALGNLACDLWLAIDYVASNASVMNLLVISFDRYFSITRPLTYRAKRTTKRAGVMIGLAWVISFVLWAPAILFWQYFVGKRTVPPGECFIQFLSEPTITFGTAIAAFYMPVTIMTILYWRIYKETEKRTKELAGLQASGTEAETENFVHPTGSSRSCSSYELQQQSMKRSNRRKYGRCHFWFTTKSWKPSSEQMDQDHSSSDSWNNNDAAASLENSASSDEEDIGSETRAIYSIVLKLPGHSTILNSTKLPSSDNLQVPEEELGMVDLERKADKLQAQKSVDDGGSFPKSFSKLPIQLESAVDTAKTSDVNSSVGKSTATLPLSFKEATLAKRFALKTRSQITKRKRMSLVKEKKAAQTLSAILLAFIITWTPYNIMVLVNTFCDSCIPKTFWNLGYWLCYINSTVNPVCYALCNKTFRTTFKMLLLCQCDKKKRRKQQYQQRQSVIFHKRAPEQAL
In short: (§1)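 Stable CHO-K1 lines (human M3 or M5), calcium-dye loaded ≥1 h, assayed in Ca/Mg-free HBSS + 20 mM HEPES + 2.5 mM probenecid. 11-pt dose response, triplicate, 3 min fluorescence read. 4-parameter regression; % activity vs carbachol EC100.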

[3] = target: T3, human cloned CHRM5 receptor (M5_CHO) (Homo sapiens, UniProt P08912); test: CHRM5 Ca++ Flux Assay (agonist mode, FDSS 7000EX); settings: for Emax: Percent Activity measured to EC100 of Carbachol, read-out: M5 FDSS PA; for EC50: agonist mode, geometric mean if tested more than once, read-out: M5 FDSS EC50
T3 construct: expressed in transfected cells; host or cells: CHO (M5_CHO)
T3 sequence (P08912 1-532): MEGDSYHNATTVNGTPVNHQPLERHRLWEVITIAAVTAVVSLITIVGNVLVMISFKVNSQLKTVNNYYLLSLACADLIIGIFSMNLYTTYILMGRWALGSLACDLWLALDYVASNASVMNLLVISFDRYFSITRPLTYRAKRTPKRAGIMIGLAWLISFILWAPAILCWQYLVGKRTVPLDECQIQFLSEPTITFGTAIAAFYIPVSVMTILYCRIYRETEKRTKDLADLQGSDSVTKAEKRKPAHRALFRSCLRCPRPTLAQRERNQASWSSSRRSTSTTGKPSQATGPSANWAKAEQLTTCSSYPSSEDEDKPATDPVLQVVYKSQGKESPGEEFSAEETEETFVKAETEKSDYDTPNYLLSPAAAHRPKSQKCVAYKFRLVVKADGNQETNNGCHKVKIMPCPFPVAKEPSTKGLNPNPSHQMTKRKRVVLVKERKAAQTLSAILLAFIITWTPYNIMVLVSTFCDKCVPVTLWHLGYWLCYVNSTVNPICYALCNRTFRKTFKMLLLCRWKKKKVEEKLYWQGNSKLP
In short: as §1

| Emax [1] | Emax [2] | EC50 [2] | Emax [3] | EC50 [3] | EC50 ([1]; agonist mode, geometric mean if tested more than once, read-out: M2 FDSS EC50) | SMILES |
| --- | --- | --- | --- | --- | --- | --- |
| 0% | 0% | > 25 µM | 0% | > 25 µM | – | Cc1coc(N2CC3(CC[C@@H](N4CCC(c5ccccc5OCC(C)(C)O)CC4)C3)C2)n1 [Example 3O, (R)-2-methyl-1-(2-(1-(2-(4-methyloxazol-2-yl)-2-azaspiro[3.4]octan-6-yl)piperidin-4-yl)phenoxy)propan-2-ol] |
| 21% | 0% | > 25 µM | 6% | 0.7 µM | 0.019 µM | COc1ccccc1C1CCN([C@@H]2CCC3(C2)CN(c2ncon2)C3)CC1 [Example 4A, (R)-3-(6-(4-(2-methoxyphenyl)piperidin-1-yl)-2-azaspiro[3.4]octan-2-yl)-1,2,4-oxadiazole] |
| 0% | 0% | > 25 µM | 0% | > 25 µM | – | COc1ccccc1C1CCN([C@@H]2CCC3(C2)CN(c2cncnc2)C3)CC1 [Example 5A, (R)-6-(4-(2-methoxyphenyl)piperidin-1-yl)-2-(pyrimidin-5-yl)-2-azaspiro[3.4]octane] |
| 0% | 0% | > 25 µM | 0% | > 25 µM | – | CC(C)(O)COc1ccccc1C1CCN([C@@H]2CCC3(C2)CN(c2cncnc2)C3)CC1 [Example 5B, (R)-2-methyl-1-(2-(1-(2-(pyrimidin-5-yl)-2-azaspiro[3.4]octan-6-yl)piperidin-4-yl)phenoxy)propan-2-ol] |
| 0% | 0% | > 25 µM | 0% | > 25 µM | – | Cc1ncncc1N1CC2(CC[C@@H](N3CCC(c4ccccc4OCC(C)(C)O)CC3)C2)C1 [Example 5C, (R)-2-methyl-1-(2-(1-(2-(4-methylpyrimidin-5-yl)-2-azaspiro[3.4]octan-6-yl)piperidin-4-yl)phenoxy)propan-2-ol] |
| 0% | 0% | > 25 µM | 0% | > 25 µM | – | COc1ccccc1C1CCN([C@@H]2CCC3(C2)CN(c2ccc(C)nc2)C3)CC1 [Example 5D, (R)-6-(4-(2-methoxyphenyl)piperidin-1-yl)-2-(6-methylpyridin-3-yl)-2-azaspiro[3.4]octane] |
| 0% | 0% | > 25 µM | 0% | > 25 µM | – | COc1ccccc1C1CCN([C@@H]2CCC3(C2)CN(c2cnc(C)nc2)C3)CC1 [Example 5E, (R)-6-(4-(2-methoxyphenyl)piperidin-1-yl)-2-(2-methylpyrimidin-5-yl)-2-azaspiro[3.4]octane] |
| 26% | 0% | > 25 µM | 17% | 14.3 µM | – | COc1ccccc1C1CCN([C@@H]2CCC3(C2)CN(c2cncc(F)c2)C3)CC1 [Example 5F, (R)-2-(5-fluoropyridin-3-yl)-6-(4-(2-methoxyphenyl)piperidin-1-yl)-2-azaspiro[3.4]octane] |
| 0% | 0% | > 25 µM | 0% | > 25 µM | – | COc1ccccc1C1CCN([C@@H]2CCC3(C2)CN(c2cncc(C)n2)C3)CC1 [Example 5G, (R)-6-(4-(2-methoxyphenyl)piperidin-1-yl)-2-(6-methylpyrazin-2-yl)-2-azaspiro[3.4]octane] |
| 0% | 0% | > 25 µM | 0% | > 25 µM | – | COc1ccccc1C1CCN([C@@H]2CCC3(C2)CN(c2cnccn2)C3)CC1 [Example 5H, (R)-6-(4-(2-methoxyphenyl)piperidin-1-yl)-2-(pyrazin-2-yl)-2-azaspiro[3.4]octane] |
